Results from ChEMBL document CHEMBL3991601, “The target landscape of clinical kinase drugs” (Science, 2017).
Active and inactive are the calls of the source. Cut-off read from the data, not from the text of the source, for most assays here: actives have a measured Kd and inactives only a lower limit.

target: T1, Cyclin-G-associated kinase (Homo sapiens, UniProt O14976)
T1 sequence (O14976 whole entry): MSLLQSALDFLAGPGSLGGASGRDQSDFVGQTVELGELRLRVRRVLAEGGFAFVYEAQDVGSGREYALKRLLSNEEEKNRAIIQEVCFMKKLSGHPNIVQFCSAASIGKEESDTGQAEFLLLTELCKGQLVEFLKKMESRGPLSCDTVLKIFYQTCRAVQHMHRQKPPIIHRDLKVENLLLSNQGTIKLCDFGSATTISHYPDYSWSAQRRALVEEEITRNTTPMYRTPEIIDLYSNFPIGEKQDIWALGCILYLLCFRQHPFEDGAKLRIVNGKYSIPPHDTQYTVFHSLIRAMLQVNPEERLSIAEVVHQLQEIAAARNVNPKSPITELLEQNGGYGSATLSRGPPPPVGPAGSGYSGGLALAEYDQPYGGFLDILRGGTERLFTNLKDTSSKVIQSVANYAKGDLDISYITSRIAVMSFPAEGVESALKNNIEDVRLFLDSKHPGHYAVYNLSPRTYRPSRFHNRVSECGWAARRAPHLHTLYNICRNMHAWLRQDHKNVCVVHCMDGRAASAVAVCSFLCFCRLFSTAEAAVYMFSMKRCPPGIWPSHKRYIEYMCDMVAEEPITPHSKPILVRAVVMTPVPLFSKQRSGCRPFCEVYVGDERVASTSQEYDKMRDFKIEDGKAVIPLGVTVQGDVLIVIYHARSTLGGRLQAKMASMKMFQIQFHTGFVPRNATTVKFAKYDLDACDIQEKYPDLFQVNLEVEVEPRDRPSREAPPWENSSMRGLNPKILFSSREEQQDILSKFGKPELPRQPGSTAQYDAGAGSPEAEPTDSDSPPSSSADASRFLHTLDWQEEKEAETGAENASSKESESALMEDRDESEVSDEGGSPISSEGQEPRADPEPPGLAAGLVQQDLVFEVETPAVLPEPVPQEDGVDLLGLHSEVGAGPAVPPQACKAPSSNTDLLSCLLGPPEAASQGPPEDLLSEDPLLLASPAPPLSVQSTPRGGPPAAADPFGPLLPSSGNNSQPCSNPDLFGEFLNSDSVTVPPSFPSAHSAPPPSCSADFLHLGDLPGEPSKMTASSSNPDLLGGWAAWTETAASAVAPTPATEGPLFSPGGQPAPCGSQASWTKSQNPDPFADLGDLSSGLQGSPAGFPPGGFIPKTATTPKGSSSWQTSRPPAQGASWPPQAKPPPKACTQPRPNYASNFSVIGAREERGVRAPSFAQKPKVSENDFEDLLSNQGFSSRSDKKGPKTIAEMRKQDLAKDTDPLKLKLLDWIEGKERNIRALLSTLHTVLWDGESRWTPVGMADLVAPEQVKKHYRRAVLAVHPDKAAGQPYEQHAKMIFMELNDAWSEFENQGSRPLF
Note: in the data inactive means no Kd found up to 30 µM.

Question: How did the Kd turn out when `CN1N=C(N)c2cn([C@@H]3O[C@H](COP(=O)(O)O)[C@@H](O)[C@H]3O)c3ncnc1c23` [TRICIRIBINE PHOSPHATE] was run?
Answer: The Kd was > 30 µM (inactive).

Question: Which Kd does the source give for `CC(C)Nc1cc(-c2c[nH]c(C(=O)N[C@H](CO)c3cccc(Cl)c3)c2)c(Cl)cn1` [ULIXERTINIB] here?
Answer: The Kd was > 30 µM (inactive).

Question: `CCCS(=O)(=O)Nc1ccc(F)c(C(=O)c2c[nH]c3ncc(-c4ccc(Cl)cc4)cc23)c1F` [VEMURAFENIB] was tested. Which Kd did it give?
Answer: Its Kd is > 30 µM (inactive).

Question: `CC[C@@H]1C(=O)N(C)c2cnc(Nc3ccc(C(=O)N[C@H]4CC[C@H](N5CCN(CC6CC6)CC5)CC4)cc3OC)nc2N1C(C)C` [VOLASERTIB] was tested. Which Kd did it give?
Answer: Its Kd is > 30 µM (inactive).

Question: Which Kd does the source give for `CCn1c(=O)c(-c2cc[nH]n2)cc2c(C)nc(N)nc21` [VOXTALISIB] here?
Answer: The Kd was > 30 µM (inactive).

Question: With `O=C(Nc1ccc(-c2ccnc(Nc3ccc(N4CCOCC4)cc3)n2)cc1)C1CCCN1` (stereo unspecified) [XL-019] as the compound, how does the Kd read?
Answer: Its Kd is 0.05 µM (active).

target: Tyrosine-protein kinase CSK (Homo sapiens, UniProt P41240)
Sequence (P41240 whole entry): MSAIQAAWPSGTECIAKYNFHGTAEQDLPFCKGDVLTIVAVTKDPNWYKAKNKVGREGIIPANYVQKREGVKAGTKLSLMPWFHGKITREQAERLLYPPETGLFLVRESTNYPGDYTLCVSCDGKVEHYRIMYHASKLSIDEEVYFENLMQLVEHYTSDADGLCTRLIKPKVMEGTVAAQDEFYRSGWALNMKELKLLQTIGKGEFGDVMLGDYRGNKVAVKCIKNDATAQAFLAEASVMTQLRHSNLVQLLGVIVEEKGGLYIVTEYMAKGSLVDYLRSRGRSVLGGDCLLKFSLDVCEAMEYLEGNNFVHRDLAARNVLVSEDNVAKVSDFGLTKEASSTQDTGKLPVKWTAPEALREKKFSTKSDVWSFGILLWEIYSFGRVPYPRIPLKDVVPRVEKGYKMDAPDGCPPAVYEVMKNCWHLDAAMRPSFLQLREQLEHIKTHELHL

Question: Which Kd does the source give for `CN1N=C(N)c2cn([C@@H]3O[C@H](COP(=O)(O)O)[C@@H](O)[C@H]3O)c3ncnc1c23` [TRICIRIBINE PHOSPHATE] here?
Answer: The Kd was > 30 µM (inactive).

Question: Which Kd does the source give for `CC(C)Nc1cc(-c2c[nH]c(C(=O)N[C@H](CO)c3cccc(Cl)c3)c2)c(Cl)cn1` [ULIXERTINIB] here?
Answer: The Kd was > 30 µM (inactive).

Question: `CCCS(=O)(=O)Nc1ccc(F)c(C(=O)c2c[nH]c3ncc(-c4ccc(Cl)cc4)cc23)c1F` [VEMURAFENIB] was tested. Which Kd did it give?
Answer: The Kd was > 30 µM (inactive).

Question: `CC[C@@H]1C(=O)N(C)c2cnc(Nc3ccc(C(=O)N[C@H]4CC[C@H](N5CCN(CC6CC6)CC5)CC4)cc3OC)nc2N1C(C)C` [VOLASERTIB] was tested. Which Kd did it give?
Answer: Its Kd is > 30 µM (inactive).

Question: `CCn1c(=O)c(-c2cc[nH]n2)cc2c(C)nc(N)nc21` [VOXTALISIB] was tested. Which Kd did it give?
Answer: The Kd was > 30 µM (inactive).

Question: For `O=C(Nc1ccc(-c2ccnc(Nc3ccc(N4CCOCC4)cc3)n2)cc1)C1CCCN1` (stereo unspecified) [XL-019], which Kd is on record?
Answer: Its Kd is > 30 µM (inactive).

target: T2, AarF domain-containing protein kinase 1 (Homo sapiens, UniProt Q86TW2)
T2 sequence (Q86TW2 whole entry): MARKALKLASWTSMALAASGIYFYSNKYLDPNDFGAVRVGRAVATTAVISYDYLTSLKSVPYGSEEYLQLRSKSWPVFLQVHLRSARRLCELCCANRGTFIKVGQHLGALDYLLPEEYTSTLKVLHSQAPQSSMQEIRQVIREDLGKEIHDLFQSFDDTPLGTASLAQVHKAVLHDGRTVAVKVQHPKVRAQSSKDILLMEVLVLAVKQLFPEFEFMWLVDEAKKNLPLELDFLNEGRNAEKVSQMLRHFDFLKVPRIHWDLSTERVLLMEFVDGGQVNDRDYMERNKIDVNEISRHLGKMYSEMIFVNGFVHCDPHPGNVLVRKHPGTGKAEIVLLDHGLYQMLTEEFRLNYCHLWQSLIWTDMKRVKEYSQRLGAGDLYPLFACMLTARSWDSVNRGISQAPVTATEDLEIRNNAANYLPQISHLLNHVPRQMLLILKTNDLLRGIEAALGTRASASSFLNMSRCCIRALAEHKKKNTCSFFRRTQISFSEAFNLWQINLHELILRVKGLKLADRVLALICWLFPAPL

Question: For `CN1N=C(N)c2cn([C@@H]3O[C@H](COP(=O)(O)O)[C@@H](O)[C@H]3O)c3ncnc1c23` [TRICIRIBINE PHOSPHATE], which Kd is on record?
Answer: The Kd was > 30 µM (inactive).

Question: With `CC(C)Nc1cc(-c2c[nH]c(C(=O)N[C@H](CO)c3cccc(Cl)c3)c2)c(Cl)cn1` [ULIXERTINIB] as the compound, how does the Kd read?
Answer: The Kd was > 30 µM (inactive).

Question: Which Kd does the source give for `CCCS(=O)(=O)Nc1ccc(F)c(C(=O)c2c[nH]c3ncc(-c4ccc(Cl)cc4)cc23)c1F` [VEMURAFENIB] here?
Answer: Its Kd is > 30 µM (inactive).

Question: For `CC[C@@H]1C(=O)N(C)c2cnc(Nc3ccc(C(=O)N[C@H]4CC[C@H](N5CCN(CC6CC6)CC5)CC4)cc3OC)nc2N1C(C)C` [VOLASERTIB], which Kd is on record?
Answer: The Kd was > 30 µM (inactive).

Question: With `CCn1c(=O)c(-c2cc[nH]n2)cc2c(C)nc(N)nc21` [VOXTALISIB] as the compound, how does the Kd read?
Answer: The Kd was > 30 µM (inactive).

Question: How did the Kd turn out when `O=C(Nc1ccc(-c2ccnc(Nc3ccc(N4CCOCC4)cc3)n2)cc1)C1CCCN1` (stereo unspecified) [XL-019] was run?
Answer: Its Kd is 0.202 µM (active).

target: Cyclin-dependent kinase 13 (Homo sapiens, UniProt Q14004)
Sequence (Q14004 whole entry): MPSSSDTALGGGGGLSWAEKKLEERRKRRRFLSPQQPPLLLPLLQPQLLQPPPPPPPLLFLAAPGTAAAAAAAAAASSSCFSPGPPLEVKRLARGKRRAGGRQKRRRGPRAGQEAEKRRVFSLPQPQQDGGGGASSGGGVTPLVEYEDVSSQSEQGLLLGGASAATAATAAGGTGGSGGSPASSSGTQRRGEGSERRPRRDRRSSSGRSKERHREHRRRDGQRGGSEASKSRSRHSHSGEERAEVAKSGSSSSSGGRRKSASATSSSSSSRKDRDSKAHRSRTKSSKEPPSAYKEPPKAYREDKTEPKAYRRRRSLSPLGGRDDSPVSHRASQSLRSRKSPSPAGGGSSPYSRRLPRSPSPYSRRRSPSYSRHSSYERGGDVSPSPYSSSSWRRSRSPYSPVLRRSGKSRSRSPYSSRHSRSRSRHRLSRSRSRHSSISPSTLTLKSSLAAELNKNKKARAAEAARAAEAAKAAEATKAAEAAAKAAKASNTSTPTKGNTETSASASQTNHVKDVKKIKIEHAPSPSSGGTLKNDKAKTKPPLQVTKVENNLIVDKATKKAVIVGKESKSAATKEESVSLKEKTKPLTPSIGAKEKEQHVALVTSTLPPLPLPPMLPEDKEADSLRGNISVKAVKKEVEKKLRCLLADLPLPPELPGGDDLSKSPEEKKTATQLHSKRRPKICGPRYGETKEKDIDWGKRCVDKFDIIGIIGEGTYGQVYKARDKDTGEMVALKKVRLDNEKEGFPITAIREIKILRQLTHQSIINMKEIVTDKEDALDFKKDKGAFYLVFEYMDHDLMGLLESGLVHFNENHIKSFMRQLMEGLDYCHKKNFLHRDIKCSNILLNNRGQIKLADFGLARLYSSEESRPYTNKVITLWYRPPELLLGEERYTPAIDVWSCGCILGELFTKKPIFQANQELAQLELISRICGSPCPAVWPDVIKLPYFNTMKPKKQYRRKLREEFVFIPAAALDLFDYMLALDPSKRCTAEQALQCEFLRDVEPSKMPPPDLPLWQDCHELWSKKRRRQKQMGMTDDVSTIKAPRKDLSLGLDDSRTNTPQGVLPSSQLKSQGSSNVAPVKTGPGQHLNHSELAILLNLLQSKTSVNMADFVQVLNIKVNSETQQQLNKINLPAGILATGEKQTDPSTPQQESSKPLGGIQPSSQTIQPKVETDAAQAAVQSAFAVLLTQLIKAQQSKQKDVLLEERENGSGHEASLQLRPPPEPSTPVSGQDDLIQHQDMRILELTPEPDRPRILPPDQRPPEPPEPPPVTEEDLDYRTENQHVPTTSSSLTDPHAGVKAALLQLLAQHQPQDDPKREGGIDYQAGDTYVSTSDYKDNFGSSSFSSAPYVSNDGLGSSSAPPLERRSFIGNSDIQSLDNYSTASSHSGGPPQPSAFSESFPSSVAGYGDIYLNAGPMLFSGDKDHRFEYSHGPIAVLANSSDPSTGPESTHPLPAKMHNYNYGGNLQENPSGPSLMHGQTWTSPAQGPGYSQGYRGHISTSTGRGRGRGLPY

Question: `CN1N=C(N)c2cn([C@@H]3O[C@H](COP(=O)(O)O)[C@@H](O)[C@H]3O)c3ncnc1c23` [TRICIRIBINE PHOSPHATE] was tested. Which Kd did it give?
Answer: The Kd was > 30 µM (inactive).

Question: How did the Kd turn out when `CC(C)Nc1cc(-c2c[nH]c(C(=O)N[C@H](CO)c3cccc(Cl)c3)c2)c(Cl)cn1` [ULIXERTINIB] was run?
Answer: The Kd was > 30 µM (inactive).

Question: How did the Kd turn out when `CCCS(=O)(=O)Nc1ccc(F)c(C(=O)c2c[nH]c3ncc(-c4ccc(Cl)cc4)cc23)c1F` [VEMURAFENIB] was run?
Answer: The Kd was > 30 µM (inactive).

Question: Which Kd does the source give for `CC[C@@H]1C(=O)N(C)c2cnc(Nc3ccc(C(=O)N[C@H]4CC[C@H](N5CCN(CC6CC6)CC5)CC4)cc3OC)nc2N1C(C)C` [VOLASERTIB] here?
Answer: Its Kd is > 30 µM (inactive).

Question: `CCn1c(=O)c(-c2cc[nH]n2)cc2c(C)nc(N)nc21` [VOXTALISIB] was tested. Which Kd did it give?
Answer: Its Kd is > 30 µM (inactive).

Question: For `O=C(Nc1ccc(-c2ccnc(Nc3ccc(N4CCOCC4)cc3)n2)cc1)C1CCCN1` (stereo unspecified) [XL-019], which Kd is on record?
Answer: Its Kd is > 30 µM (inactive).

target: T3, Bifunctional phosphoribosylaminoimidazole carboxylase/phosphoribosylaminoimidazole succinocarboxamide synthetase (Homo sapiens, UniProt P22234)
T3 sequence (P22234 whole entry): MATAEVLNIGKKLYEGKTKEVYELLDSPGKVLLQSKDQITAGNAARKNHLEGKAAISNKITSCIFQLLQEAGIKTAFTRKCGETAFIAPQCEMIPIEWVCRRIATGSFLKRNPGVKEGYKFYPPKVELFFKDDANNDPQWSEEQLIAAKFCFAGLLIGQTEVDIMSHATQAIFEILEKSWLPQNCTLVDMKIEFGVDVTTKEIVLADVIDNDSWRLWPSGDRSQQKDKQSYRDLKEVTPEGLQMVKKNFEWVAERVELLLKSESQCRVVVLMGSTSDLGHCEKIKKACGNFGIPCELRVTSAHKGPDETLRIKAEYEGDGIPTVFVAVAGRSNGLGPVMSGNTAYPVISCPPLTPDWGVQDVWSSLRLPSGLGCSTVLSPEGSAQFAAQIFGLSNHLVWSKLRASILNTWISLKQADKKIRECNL

Question: `CN1N=C(N)c2cn([C@@H]3O[C@H](COP(=O)(O)O)[C@@H](O)[C@H]3O)c3ncnc1c23` [TRICIRIBINE PHOSPHATE] was tested. Which Kd did it give?
Answer: The Kd was > 30 µM (inactive).

Question: How did the Kd turn out when `CC(C)Nc1cc(-c2c[nH]c(C(=O)N[C@H](CO)c3cccc(Cl)c3)c2)c(Cl)cn1` [ULIXERTINIB] was run?
Answer: Its Kd is > 30 µM (inactive).

Question: For `CCCS(=O)(=O)Nc1ccc(F)c(C(=O)c2c[nH]c3ncc(-c4ccc(Cl)cc4)cc23)c1F` [VEMURAFENIB], which Kd is on record?
Answer: Its Kd is > 30 µM (inactive).

Question: How did the Kd turn out when `CC[C@@H]1C(=O)N(C)c2cnc(Nc3ccc(C(=O)N[C@H]4CC[C@H](N5CCN(CC6CC6)CC5)CC4)cc3OC)nc2N1C(C)C` [VOLASERTIB] was run?
Answer: The Kd was > 30 µM (inactive).

Question: How did the Kd turn out when `CCn1c(=O)c(-c2cc[nH]n2)cc2c(C)nc(N)nc21` [VOXTALISIB] was run?
Answer: The Kd was > 30 µM (inactive).

Question: With `O=C(Nc1ccc(-c2ccnc(Nc3ccc(N4CCOCC4)cc3)n2)cc1)C1CCCN1` (stereo unspecified) [XL-019] as the compound, how does the Kd read?
Answer: Its Kd is > 30 µM (inactive).

target: Protein kinase C beta type (Homo sapiens, UniProt P05771)
Sequence (P05771 whole entry): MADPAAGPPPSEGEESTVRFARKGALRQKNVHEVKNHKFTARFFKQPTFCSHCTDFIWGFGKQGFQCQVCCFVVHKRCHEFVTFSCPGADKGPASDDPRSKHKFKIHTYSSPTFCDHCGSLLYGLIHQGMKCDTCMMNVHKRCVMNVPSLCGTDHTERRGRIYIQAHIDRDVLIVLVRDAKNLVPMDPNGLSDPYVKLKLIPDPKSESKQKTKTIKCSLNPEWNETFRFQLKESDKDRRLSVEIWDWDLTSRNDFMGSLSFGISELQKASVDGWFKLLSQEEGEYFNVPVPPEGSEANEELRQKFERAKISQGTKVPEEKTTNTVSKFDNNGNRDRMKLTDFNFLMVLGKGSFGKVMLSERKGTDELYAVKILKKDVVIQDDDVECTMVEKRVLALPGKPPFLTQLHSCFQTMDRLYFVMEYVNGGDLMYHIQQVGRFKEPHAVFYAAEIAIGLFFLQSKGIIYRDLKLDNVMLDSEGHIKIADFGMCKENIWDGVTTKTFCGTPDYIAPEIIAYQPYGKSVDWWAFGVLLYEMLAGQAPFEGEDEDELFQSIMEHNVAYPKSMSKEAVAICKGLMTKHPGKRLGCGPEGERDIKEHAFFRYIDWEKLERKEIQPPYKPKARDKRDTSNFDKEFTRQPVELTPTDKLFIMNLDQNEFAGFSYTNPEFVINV

Question: How did the Kd turn out when `CN1N=C(N)c2cn([C@@H]3O[C@H](COP(=O)(O)O)[C@@H](O)[C@H]3O)c3ncnc1c23` [TRICIRIBINE PHOSPHATE] was run?
Answer: Its Kd is > 30 µM (inactive).

Question: `CC(C)Nc1cc(-c2c[nH]c(C(=O)N[C@H](CO)c3cccc(Cl)c3)c2)c(Cl)cn1` [ULIXERTINIB] was tested. Which Kd did it give?
Answer: Its Kd is > 30 µM (inactive).

Question: `CCCS(=O)(=O)Nc1ccc(F)c(C(=O)c2c[nH]c3ncc(-c4ccc(Cl)cc4)cc23)c1F` [VEMURAFENIB] was tested. Which Kd did it give?
Answer: The Kd was > 30 µM (inactive).

Question: How did the Kd turn out when `CC[C@@H]1C(=O)N(C)c2cnc(Nc3ccc(C(=O)N[C@H]4CC[C@H](N5CCN(CC6CC6)CC5)CC4)cc3OC)nc2N1C(C)C` [VOLASERTIB] was run?
Answer: The Kd was > 30 µM (inactive).

Question: How did the Kd turn out when `CCn1c(=O)c(-c2cc[nH]n2)cc2c(C)nc(N)nc21` [VOXTALISIB] was run?
Answer: Its Kd is > 30 µM (inactive).

Question: With `O=C(Nc1ccc(-c2ccnc(Nc3ccc(N4CCOCC4)cc3)n2)cc1)C1CCCN1` (stereo unspecified) [XL-019] as the compound, how does the Kd read?
Answer: The Kd was > 30 µM (inactive).
